Measurements: US20080318892A1, “METHODS AND FORMULATIONS FOR PROTECTING CELLS, AND FOR TREATING DISEASES AND CONDITIONS BY OPTIMIZING THE INTRACELLULAR CONCENTRATION OF NAD” (priority 2007, published 2008)

How the values were obtained:
[1] = system: HITC6 SMCs; assay: Replicative lifespan (cumulative population doublings) of HITC6 SMCs; format: cell-based, human
Description: (§1) To quantify replication, cells were plated at 4500 cells/cm^2 and growth medium with 10% FBS was changed every two days until cells reached 90-95% confluence. Harvested cells were counted from triplicate plates and the number of population doublings was calculated based on: [log10(number of cells harvested)−log10(number of cells seeded)]/[…] (Fukuhara, 2005). Population growth curves were compared using both nonlinear regression and two-way analysis of variance.
Cell Culture. Experiments were performed using primary human SMCs and the HITC6 clonal SMC line, both derived from segments of human internal thoracic artery (Li et al., 1999; Li et al., 2001). SMCs were maintained at 37° C. with 5% CO2 and cultured in Medium 199 (Invitrogen, Carlsbad, Calif., USA) supplemented with 25 mM HEPES, 10% FBS, 1% penicillin/streptomycin, and 1% L-glutamine. Phoenix cells (distributed by ATCC, Manassas, Va., USA) were maintained at 37° C. with 5% CO2 and cultured in Dulbecco's modified Eagle's medium (Invitrogen, Carlsbad, Calif., USA). To quantify replication, cells were seeded at a density of 4500 cells/cm2 and population doublings were calculated using the following formula: […].

[2] = system: human aortic endothelial cells; assay: Longevity and genomic stability (tetraploidy) of human aortic endothelial cells under glucose stress; format: cell-based; conditions: for longevity: cells overexpressing NamPT
Description: Generation of Nampt-overexpressing HAEC populations. HAEC were infected with retrovirus encoding an eGFP-Nampt fusion protein. A control population was infected with eGFP alone. Transduced HAEC were FACS selected for low (eGFP-Namptlo) and high (eGFP-Nampthi) levels of transgene expression based on GFP fluorescence. Control cells were selected to achieve eGFP expression (eGFP+) at a level similar to the eGFP-Namptlo cells. Levels of GFP fluorescence were confirmed by microscopy.
Assessment of longevity and genomic stability. Triplicate cell populations were plated at 1000 cells/cm2 and were serially subcultured at 80% confluence until growth curves reached plateau. Population doublings were calculated using the standard formula. At certain time points cells were harvested, fixed, and DNA content was analyzed. Tetraploid cells were counted as a proportion of the total population using ModFit software.

[3] = system: HITB5 SMC's; assay: DNA synthesis ([3H]thymidine incorporation); format: cell-based, human; conditions: PBEF-overexpressing HITB5 SMCs
Description: Cell Proliferation, DNA Synthesis, and Apoptosis were also evaluated. To assess SMC proliferation, cells were plated at a density of 3000 cells per cm^2 and cultured in M199 containing 5% FBS. Triplicate wells were harvested at the designated times and counted using a hemacytometer. To quantify DNA synthesis, cells in log-phase growth were incubated for 12 hours with [^3H]thymidine (10 μCi/mL) and TCA-precipitable counts determined as described (5). Thymidine incorporation was expressed relative to DNA content, quantified by spectrofluorimetry of an aliquot of cell lysate incubated with 500 μg/ml Hoechst 33258. Apoptosis was assessed in SMCs seeded on glass coverslips by in situ end-labeling of DNA fragments using terminal deoxynucleotide transferase and fluorescein 12-dUTP (Promega) (5). Cells were fixed with 4% paraformaldehyde and counterstained with Hoechst 33258.

[4] = system: HITC6 SMCs; assay: Senescence-associated beta-galactosidase activity / senescence-free survival; format: cell-based, human
Description: Senescence-associated β-Galatosidase Activity Assay. SMCs on glass coverslips at approximately 70% confluence were fixed in 2% formaldehyde/0.2% glutaraldehyde in PBS for 3 minutes and incubated with X-gal-containing reaction mixture, as previously described (Dimri, 1995). Washed cells were stained with Hoechst 33258 (2.5 μg/ml) and the proportion of senescence-associated β-galactosidase (SA β-Gal)-positive cells quantified from 10 microscope fields of view (Olympus BX51, ×20 objective, approximately 1200 cells). Senescence-free survival was determined using Kaplan-Meier analysis of survival vs. replicative age.
Senescence-associated Beta-galactosidase Activity. Senescence-associated beta-galactosidase (SA-β-gal) activity was determined as previously described (Dimri et al, 1995). Briefly, SMCs were fixed in PBS containing 2% formaldehyde/0.2% glutaraldehyde for 3 min at room temperature. Fixed cells were then incubated for 4-6 h at 37° C. with SA-β-gal stain solution containing 150 mM NaCl, 2 mM MgCl, 40 mM citrate, 5 mM potassium ferrocyanide, 5 mM potassium ferricyanide, and 1 mg/ml of 5-bromo-4-chloro-3-indolyl-β-D-galactopyranoside (X-gal) (Invitrogen, Carlsbad, Calif., USA), at pH 6.0. SMCs were counterstained with 2.5 μg/ml Hoechst 33258 to detect cell nuclei. The proportion of SA-β-gal activity positive cells was quantified using light and fluorescence microscopy (Olympus BX51, Center Valley, Pa., USA).

[5] = system: fibroblasts derived from a subject with HGPS; assay: Replicative lifespan of HGPS fibroblasts; format: cell-based, human; conditions: HGPS fibroblasts transduced with Nampt cDNA
Description: Cell Culture. Experiments were performed using primary human vascular SMCs derived by outgrowth from fragments of internal thoracic artery and the HITC6 SMC clonal line, also originally generated from the human internal thoracic artery (Li, 2001). Derman fibroblasts from an individual with Hutchinson-Gilford Progeria Syndrome (HGPS) were obtained from Coreill Cell Repository.
as §1

[6] = biological target: T1, Nampt (Homo sapiens, UniProt P43490); assay: Nicotinamide phosphoribosyltransferase (Nampt/PBEF) activity in SMC lysates, [14C]nicotinamide to NMN; format: cell-based; conditions: human Nampt cDNA by retrovirus
T1 construct: endogenous in cells; host or cells: human vascular SMCs (primary and HITC6), whole cell lysates
T1 sequence (P43490 whole entry): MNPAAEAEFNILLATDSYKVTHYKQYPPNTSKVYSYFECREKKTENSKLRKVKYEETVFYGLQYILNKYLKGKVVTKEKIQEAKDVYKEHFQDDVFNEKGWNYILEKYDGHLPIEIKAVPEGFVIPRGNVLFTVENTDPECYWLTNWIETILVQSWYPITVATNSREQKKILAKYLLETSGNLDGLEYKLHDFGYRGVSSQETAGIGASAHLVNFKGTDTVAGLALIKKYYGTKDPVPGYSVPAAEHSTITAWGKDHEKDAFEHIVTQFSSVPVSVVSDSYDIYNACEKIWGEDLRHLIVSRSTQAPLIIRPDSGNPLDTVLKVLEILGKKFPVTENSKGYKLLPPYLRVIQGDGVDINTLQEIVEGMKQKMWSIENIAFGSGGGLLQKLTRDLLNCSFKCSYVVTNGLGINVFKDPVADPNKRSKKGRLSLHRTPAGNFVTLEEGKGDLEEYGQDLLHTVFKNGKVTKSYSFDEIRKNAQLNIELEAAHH
Description: Nicotinamide Phosphoribosyltransferase Activity. […] Labelled acetone-precipitable nicotinamide mononucleotide was quantified by scintillation counting.
Assessment of Nicotinamide Phosphoribosyltransferase Activity. […] Briefly, SMCs were lysed in buffer containing 10 mM NaH2PO4/Na2HPO4, at pH 8.8. Cell lysates were incubated with 0.5 μM [carbonyl-^14C]nicotinamide and 0.5 mM phosphoribosylpyrophosphate for 4 h on a rotating rocker at 37° C.

With “PBEF: 52-55 kD protein, rate-limiting enzyme for NAD+ biosynthesis from nicotinamide; tested by retroviral cDNA overexpression in cells” the additional population doublings ([1]; HITC6 SMCs overexpressing Nampt) was 6.3±0.3 population doublings, the extension of lifespan ([1]; HITC6 SMCs overexpressing Nampt, p=0.003) was 71±7% and the “additional population doublings conferred by Nampt” value ([1]; double-transduction experiment, Nampt without SIRT1 H363Y) was 5.4±0.5 population doublings. For the same substance, the “age- or high glucose-induced tetraploidy” value ([2]; Nampt overexpressing cells) was “no occurrence”, the longevity ([2]; glucose stress (30 mM glucose)) was “significantly augmented longevity” and the longevity ([2]; normal glucose (5 mM)) was “mildly improved longevity”. For the same substance, the “thymidine incorporation vs control cells” value [3] was “no detectable difference”, the “senescence-free survival (Kaplan-Meier) vs vector-infected cells” value ([4]; PBEF-overexpressing SMCs, p<0.0001) was “markedly extended” and the “reduction in senescent SMCs” value ([4]; late-passage (37th) PBEF-overexpressing SMCs, p=0.003) was 19±2%. The cell lifespan extension [5] was “also seen” and the “increase in Nampt activity in stably transduced SMCs” value [6] was 7.1±3.1 fold.
